Measured values taken from patent US20210188856A1, “CRYSTAL FORM OF HYDROCHLORIDE OF PYRAZOLOHETEROARYL DERIVATIVE AND PREPARATION METHOD” (JIANGSU HENGRUI MEDICINE CO., LTD., priority 2018, published 2021).
Entries after “also recorded” stand apart in the source; their conditions may differ. Where two headings read alike, the source gives them in different places.

Legend:
Format in all cases: physicochemical
[1] = Solubility in PBS 7.4 and FaSSIF solutions; conditions: thermodynamic from solid
Text: The amorphous samples of the compound represented by formula (I) and the crystal form I samples of the dihydrochloride salt of the compound represented by formula (I) obtained in the present disclosure were further evaluated for solubility in PBS 7.4 and FaSSIF solutions.

Log D = experiment: Log D
[2] = Hygroscopicity by dynamic vapor sorption (DVS); conditions: 25° C.
Procedure: DVS is dynamic vapor sorption: Surface Measurement Systems advantage 2 is used, the humidity starts from 50%, the humidity range is 0%-95%, and the step size is 10%. The judgment standard is that the mass change is less than 0.01% within 10000 min, and two cycles are performed. Surface Measurement Systems advantage 2 was used, the experiment was carried out at 25° C. with humidity starting from 50%, the humidity range observed was 0%-95%, the step size was 10%, and the judgment standard was that the mass change was less than 0.01% within 10000 min, and two cycles were performed.

[3] = Influencing factors stability (heating, light illumination, high humidity; spread and uncovered, 20 days)
Procedure: Example 6: the crystal form I of the dihydrochloride salt of the compound represented by formula (I) (example 1) was spread and uncovered, and the steadily of the sample was evaluated under heating (40° C., 60° C.), light illumination (4500 Lux), and high humidity (RH 75%, RH 90%) with a period of 20 days.
(§1) Example 10: the crystal form A (example 7) of the monohydrochloride salt of the compound of formula (I) was spread and uncovered, and the stability of the sample was evaluated under heating (40° C., 60° C.), light illumination (4500 Lux), high humidity (RH 75%, RH 90%) conditions with a period of 20 days.
as §1, with “Example 11:” for “Example 10:”, “form B” for “form A (example 7)”, “compound represented by” for “compound of”, “(I) (example 8)” for “(I)”
as §1, with “Example 12:” for “Example 10:”, “form C” for “form A (example 7)”, “compound represented by” for “compound of”, “(I) (example 9)” for “(I)”

[4] = Long-term stability, 25° C., 60% RH, 9 months; conditions: for Purity % 3 months / Purity % 9 months / Purity Initial: 60% RH
Procedure: Example 13: Three batches of the crystal form I of the dihydrochloride salt of the compound of formula (I) were subjected to a long-term stability investigation of 9 months under the conditions of 25° C±2° C., 60%RH±5%RH.

[5] = XRPD of sample taken out during DSC temperature rise
Text: According to X-ray powder diffraction detection, the crystal form is crystal form I, and the XRPD pattern thereof is shown in FIG. 1.

[6] = light illumination (4500 Lux), 4 days
[7] = light illumination (4500 Lux), 10 days
[8] = light illumination (4500 Lux), 20 days

CCCCOc1nc(N)c2cnn(Cc3ccc(CN4CCCC4)cc3)c2n1.Cl.Cl [crystal form I, 6-butoxy-1-(4-(pyrrolidin-1-ylmethyl)benzyl)-1H-pyrazolo[3,4-d]pyrimidin-4-amine dihydrochloride]
solubility ([1]; FaSSIF solution, fassif, read-out: FasSIF Solubility): 1250 µg/mL
solubility ([1]; PBS 7.4, pH 7.4, aqueous buffer, read-out: PBS 7.4 Solubility): 50 µg/mL
logD (Log D): 1.17
DVS weight change 0.0% RH-95.0% RH ([2]; 0.0% RH-95.0% RH): 9.19%
DVS weight change 10%RH-90.0%RH ([2]; 10%RH-90.0%RH): 6.628%
Crystal form before and after DVS (XRPD) ([2]; DVS two cycles, dihydrochloride): did not change; also recorded: has not changed; also recorded: unchanged
hygroscopicity (in words) ([2]; DVS, dihydrochloride): slightly hygroscopic; also recorded: (with hygroscopicity)
Maximum single impurity ([3]; 0 day): 0.11%
Purity ([3]; 0 day): 99.47%
Total impurities ([3]; 0 day): 0.53%
Maximum single impurity ([3]; 40° C., 4 days): 0.11%
Purity ([3]; 40° C., 4 days): 99.49%
Total impurities ([3]; 40° C., 4 days): 0.51%
Maximum single impurity ([3]; 40° C., 10 days): 0.12%
Purity ([3]; 40° C., 10 days): 99.52%
Total impurities ([3]; 40° C., 10 days): 0.48%
Maximum single impurity ([3]; 40° C., 20 days): 0.12%
Purity ([3]; 40° C., 20 days): 99.46%
Total impurities ([3]; 40° C., 20 days): 0.54%
Maximum single impurity ([3]; 60° C., 4 days): 0.15%
Purity ([3]; 60° C., 4 days): 99.44%
Total impurities ([3]; 60° C., 4 days): 0.56%
Maximum single impurity ([3]; 60° C., 10 days): 0.11%
Purity ([3]; 60° C., 10 days): 99.53%
Total impurities ([3]; 60° C., 10 days): 0.47%
Maximum single impurity ([3]; 60° C., 20 days): 0.11%
Purity ([3]; 60° C., 20 days): 99.42%
Total impurities ([3]; 60° C., 20 days): 0.58%
Maximum single impurity ([3]; 75% RH, 4 days): 0.15%
Purity ([3]; 75% RH, 4 days): 99.38%
Total impurities ([3]; 75% RH, 4 days): 0.62%
Maximum single impurity ([3]; 75% RH, 10 days): 0.12%
Purity ([3]; 75% RH, 10 days): 99.53%
Total impurities ([3]; 75% RH, 10 days): 0.47%
Maximum single impurity ([3]; 75% RH, 20 days): 0.11%
Purity ([3]; 75% RH, 20 days): 99.47%
Total impurities ([3]; 75% RH, 20 days): 0.53%
Maximum single impurity ([3]; 90% RH, 4 days): 0.11%
Purity ([3]; 90% RH, 4 days): 99.46%
Total impurities ([3]; 90% RH, 4 days): 0.54%
Maximum single impurity ([3]; 90% RH, 10 days): 0.12%
Purity ([3]; 90% RH, 10 days): 99.54%
Total impurities ([3]; 90% RH, 10 days): 0.46%
Maximum single impurity ([3]; 90% RH, 20 days): 0.11%
Purity ([3]; 90% RH, 20 days): 99.52%
Total impurities ([3]; 90% RH, 20 days): 0.48%
Maximum single impurity [3, 6]: 0.14%
Purity [3, 6]: 99.45%
Total impurities [3, 6]: 0.55%
Maximum single impurity [3, 7]: 0.11%
Purity [3, 7]: 99.54%
Total impurities [3, 7]: 0.46%
Maximum single impurity [3, 8]: 0.12%
Purity [3, 8]: 99.41%
Total impurities [3, 8]: 0.59%
stability under the influencing factor conditions (in words) ([3]; light illumination, 40° C., 60° C., 75% RH, 90% RH, 20 days): good
physical and chemical stability, long-term (in words) ([4]; 25° C., 60% RH for 9 months): good
Purity % 3 months ([4]; Batch 1, 25° C., 3 months): 99.52%
Purity % 3 months ([4]; Batch 1, 25° C., 3 months as printed, column between 3 and 9 months): 99.57%
Purity % 9 months ([4]; Batch 1, 25° C.): 99.50%
Purity Initial ([4]; Batch 1, 25° C.): 99.57%
Purity % 3 months ([4]; Batch 2, 25° C., 3 months): 99.50%
Purity % 3 months ([4]; Batch 2, 25° C., 3 months as printed, column between 3 and 9 months): 99.48%
Purity % 9 months ([4]; Batch 2, 25° C.): 99.48%
Purity Initial ([4]; Batch 2, 25° C.): 99.53%
Purity % 3 months ([4]; Batch 3, 25° C., 3 months): 99.38%
Purity % 3 months ([4]; Batch 3, 25° C., 3 months as printed, column between 3 and 9 months): 99.33%
Purity % 9 months ([4]; Batch 3, 25° C.): 99.40%
Purity Initial ([4]; Batch 3, 25° C.): 99.44%
crystal form before and after temperature rise (XRPD) ([5]; raised to 150° C.): did not change
crystal form before and after temperature rise (XRPD) ([5]; raised to 175° C.): did not change
